Measurements reported in patent publication EP4745134A1 (Jiangsu Yahong Meditech Co., Ltd., priority 2023, dated 2025).

Experiments:
PRMT5-MTA = PRMT5-MTA (Homo sapiens, UniProt O14744); experiment: Enzymatic inhibitory activity against PRMT5-MTA (AlphaScreen); assay type: biochemical; conditions: read-out: IC50
How it was run: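 PRMT5/[…] (1 nM) was preincubated for 30 min at room temperature with 1 µM […] and 2.5 µM SAM, then exposed to compound (10-point, 3-fold from 1000 nM) for 15 min at 23 °C. Histone H4 substrate (5 nM) was added and reacted for 45 min at 23 °C. Symmetric dimethyl-R3 H4 was detected by AlphaScreen and IC50 calculated.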

HCT116-WT cells = experiment: Inhibitory activity against cell proliferation (CellTiter Glo, 6 days), HCT116-WT; assay type: cell-based; conditions: 144 h, HCT116-WT cells, 6 days, CellTiter Glo; read-out: HCT116-WT IC50
How it was run: (§1)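 HCT116 wild-type or MTAP-knockout cells (250/well, McCoy's 5A + 10% FBS) treated after overnight culture with 8-point 4-fold dilutions from 10000 nM for 6 days at 37 °C. Viability read by CellTiter Glo luminescence on day 7; IC50 calculated against DMSO controls.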

HCT116 MTAP KO cells = experiment: Inhibitory activity against cell proliferation (CellTiter Glo, 6 days), HCT116 MTAP KO; assay type: cell-based; conditions: for IC50: Homo sapiens, HCT-116, 144 h, HCT116 MTAP KO cells, 6 days, CellTiter Glo, read-out: HCT116 MTAP KO IC50; for Selectivity HCT 116-WT/ HCT116 MTAP KO: ratio of IC50 HCT116-WT / HCT116 MTAP KO
How it was run: as §1

Sequence of PRMT5-MTA (O14744 whole entry): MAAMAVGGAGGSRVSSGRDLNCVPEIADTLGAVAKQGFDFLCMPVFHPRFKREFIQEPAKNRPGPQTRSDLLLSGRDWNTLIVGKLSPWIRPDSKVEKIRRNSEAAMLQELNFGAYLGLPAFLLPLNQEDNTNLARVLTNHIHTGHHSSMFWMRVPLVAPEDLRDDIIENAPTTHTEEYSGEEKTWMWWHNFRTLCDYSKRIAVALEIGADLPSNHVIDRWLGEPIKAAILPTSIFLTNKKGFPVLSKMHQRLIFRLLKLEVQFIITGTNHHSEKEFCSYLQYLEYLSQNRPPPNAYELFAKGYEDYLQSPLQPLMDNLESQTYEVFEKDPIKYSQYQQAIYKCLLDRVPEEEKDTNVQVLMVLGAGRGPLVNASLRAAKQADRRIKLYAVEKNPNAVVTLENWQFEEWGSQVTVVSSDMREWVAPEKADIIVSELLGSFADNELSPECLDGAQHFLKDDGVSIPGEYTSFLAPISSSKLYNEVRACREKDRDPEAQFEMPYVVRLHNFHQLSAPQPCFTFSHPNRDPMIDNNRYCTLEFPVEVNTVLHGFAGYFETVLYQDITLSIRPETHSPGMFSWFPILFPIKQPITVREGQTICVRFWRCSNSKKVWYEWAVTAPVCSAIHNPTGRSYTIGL
Sequence of PRMT5-MTA (Q9BQA1 whole entry partner): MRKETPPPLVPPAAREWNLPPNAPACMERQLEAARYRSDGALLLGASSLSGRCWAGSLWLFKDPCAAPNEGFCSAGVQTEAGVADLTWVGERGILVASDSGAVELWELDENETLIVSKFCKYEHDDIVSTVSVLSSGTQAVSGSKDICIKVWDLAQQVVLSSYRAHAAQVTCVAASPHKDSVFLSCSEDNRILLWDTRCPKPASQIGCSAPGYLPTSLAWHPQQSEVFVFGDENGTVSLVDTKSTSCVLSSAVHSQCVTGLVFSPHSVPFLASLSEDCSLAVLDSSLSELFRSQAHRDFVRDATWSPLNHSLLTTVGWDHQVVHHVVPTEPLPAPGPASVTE

Row | Compound | IC50 (PRMT5-MTA) [nM] | IC50 (HCT116-WT cells) [nM] | IC50 (HCT116 MTAP KO cells) [nM] | Selectivity HCT 116-WT/ HCT116 MTAP KO (HCT116 MTAP KO cells)
1 | COC1CN(C(=O)c2cc3c(cc2Cl)nc(N)c2cnn(C)c23)N(c2cccc(F)c2F)C1 (stereo not shown) [Example 447, (4-amino-7-chloro-1-methyl-1H-pyrazolo [4,3-c]quinolin-8-yl)(2-(2,3-difluorophenyl)-4-methoxypyrazolidin-1-yl)methanone] | 6.8 | 315 | 24 | 13.13
2 | Cc1cnc(N(C)N(Cc2ccc(C(F)(F)F)cn2)C(=O)c2ccc3nc(N)c(C)cc3c2)nc1 [Example 276, 2-amino-N',3-dimethyl-N'-(5-methylpyrimidin-2-yl)-N-((5-(trifluoromethyl)pyridin-2-yl)methyl)quinoline-6-carbohydrazide] | 1.6 | 1980 | 80 | 24.70
3 | Cc1cc2nc(N)c3cnn(C)c3c2cc1C(=O)N1CC(C)CN1c1cncc(F)c1 (stereo not shown) [Example 387, (4-amino-1,7-dimethyl-1H-pyrazolo[4,3-c]quinolin-8-yl)(2-(5-fluoropyridin-3-yl)-4-methylpyrazolidin-1-yl)methanone] | 3.7 | 2470 | 90 | 27.40
4 | Cc1cc2cc(C(=O)N(Cc3ccc(-c4ccc(N)nc4)cn3)N(C)c3ncccn3)ccc2nc1N [Example 144, 2-amino-N-((6'-amino-[3,3'-bipyridine]-6-yl)methyl)-N',3-dimethyl-N'-(pyrimidin-2-yl)quinoline-6-carbohydrazide] | 1.5 | 616 | 26 | 23.69
5 | CC1CN(C(=O)c2cc3c(cc2F)nc(N)c2cnn(C)c23)N(c2ncccc2F)C1 (single isomer, unassigned) [Example 466] | 4.4 | 660 | 13 | 50.77
6 | Nc1nc2ccc(C(=O)N(Cc3ccc(C(F)(F)F)cn3)N(c3ncccn3)C3CC3)cc2cc1Br [Example 270, 2-amino-3-bromo-N'-cyclopropyl-N'-(pyrimidin-2-yl)-N-((5-(trifluoromethyl)pyridin-2-yl)methyl)quinoline-6-carbohydrazide] | 4.9 | 1510 | 110 | 13.74
7 | Cc1cc2cc(C(=O)N(Cc3ccc(-c4ccccc4)cn3)N(C)c3ncccn3)ccc2nc1N [Example 202, 2-amino-N',3-dimethyl-N-((5-phenylpyridin-2-yl)methyl)-N'-(pyrimidin-2-yl)quin oline-6-carbohydrazide] | 2.9 | 1060 | 74 | 14.26
8 | Cc1cc2nc(N)c3cnn(C)c3c2cc1C(=O)N1CCC(C)N1c1ncccn1 (stereo not shown) [Example 374, (4-amino-1,7-dimethyl-1H-pyrazolo[4,3-c]quinolin-8-yl)(3-methyl-2-(pyrimidin-2-yl)pyrazolidin-1-yl)methanone] | 8.1 | > 10000 | 210 | 
9 | Cc1cc2cc(C(=O)N(Cc3ccc(C(F)(F)F)cn3)N(C)c3nccs3)ccc2nc1N [Example 33, 2-amino-N',3-dimethyl-N'-(thiazol-2-yl)-N-((5-(trifluoromethyl)pyridin-2-yl)methyl)quinoline-6-carbohydrazide] | 3.3 | 2480 | 125 | 19.87
10 | C=C1CN(C(=O)c2cc3c(cc2Cl)nc(N)c2cnn(C)c23)N(c2ncc(Br)cc2F)C1 [Example 430, (4-amino-7-chloro-1-methyl-1H-pyrazolo [4,3-c]quinolin-8-yl)(2-(5-bromo-3-fluor opyridin-2-yl)-4-methylenepyrazolidin-1-yl)methanone] | 5.5 | 585 | 22 | 26.59
11 | Cc1cc2cc(C(=O)N(Cc3ccc(-c4cnn(C)c4)cn3)N(c3ncccn3)C3CC3)ccc2nc1N [Example 152, 2-amino-N'-cyclopropyl-3-methyl-N-((5-(1-methyl-1H-pyrazol-4-yl)pyridin-2-yl)methyl)-N'-(pyrimidin-2-yl)quinoline-6-c arbohydrazide] | 4.4 | 998 | 35 | 28.51
12 | [2H]C([2H])([2H])c1cc2cc(C(=O)N(Cc3ccc(-c4cnn(C)c4)cn3)N(C)c3ncccn3)ccc2nc1N [Example 166, 2-amino-N'-methyl-3-(methyl-D3)-N-((5-(1-methyl-1H-pyrazol-4-yl)pyridin-2-yl)methyl)-N'-(pyrimidin-2-yl)quinoline-6-carbohydrazide] | 4.8 | 1250 | 68 | 18.32
13 | C=C(C)c1cccnc1N(C)N(Cc1ccc(C(F)(F)F)cn1)C(=O)c1ccc2nc(N)c(C)cc2c1 [Example 135, 2-amino-N',3-dimethyl-N'-(3-(prop-1-en-2-yl)pyridin-2-yl)-N-((5-(trifluoromethyl)pyridin-2-yl)methyl)quinoline-6-carbohy drazide] | 3.2 | 2080 | 163 | 12.75
14 | Cc1cc2cc(C(=O)N(Cc3ccc(Br)cc3F)N(C)c3nccc4nccnc34)ccc2nc1N [Example 72, 2-amino-N-(4-bromo-2-fluorobenzyl)-N', 3-dimethyl-N'-(pyrido[3,4-b]pyrazin-5-yl)quinoline-6-carbohydrazide] | 2.7 | 1610 | 92 | 17.50
15 | Cc1cc2cc(C(=O)N(Cc3ccc(-c4ccc(N5CCN(C)CC5)nc4)cn3)N(C)c3ncccn3)ccc2nc1N [Example 140, 2-amino-N',3-dimethyl-N-((6'-(4-methylpiperazin-1-yl)-[3,3'-bipyridine]-6-yl)methyl)-N'-(pyrimidin-2-yl)quinoline-6-carbohydrazide] | 1.6 | 2060 | 46 | 44.67
16 | [2H]C([2H])([2H])c1cc2cc(C(=O)N(Cc3ccc(-c4sc(C)nc4C)cn3)N(c3ncccn3)C3CC3)ccc2nc1N [Example 317, 2-amino-N'-cyclopropyl-N-((5-(2,4-dimethylthiazol-5-yl)pyridin-2-yl)methyl)-3-(methyl-D3)-N'-(pyrimidin-2-yl)quinoline-6-carbohydrazide] | 6.4 | 241 | 23 | 10.48
17 | [2H]C([2H])([2H])c1cc2cc(C(=O)N(Cc3ccc(C(F)(F)F)cn3)N(c3ncccn3)C3CC3)ccc2nc1N [Example 314, 2-amino-N'-cyclopropyl-3-(methyl-D3)-N'-(pyrimidin-2-yl)-N-((5-(trifluoromethyl)pyridin-2-yl)methyl)quinoline-6-carbo hydrazide] | 4.7 | 283 | 12 | 23.58
18 | Cc1cc2cc(C(=O)N(Cc3ccc(C(F)(F)F)cn3)N(C)c3nccc(C(F)(F)F)n3)ccc2nc1N [Example 40, 2-amino-N',3-dimethyl-N-((5-(trifluoromethyl)pyridin-2-yl)methyl)-N'-(4-(trifluor omethyl)pyrimidin-2-yl)quinoline-6-carb ohydrazide] | 1.7 | 2590 | 83 | 31.19
19 | Cc1cc2nc(N)c3cnn(C)c3c2cc1C(=O)N1CC(C)CN1c1cnccn1 (stereo not shown) [Example 397, (4-amino-1,7-dimethyl-1H-pyrazolo[4,3-c]quinolin-8-yl)(4-methyl-2-(pyrazin-2-yl)pyrazolidin-1-yl)methanone] | 15 | 6790 | 197 | 34.46
20 | Cc1cc2cc(C(=O)N(Cc3ccc(-c4ccc(=O)n(C)c4)cn3)N(C)c3ncccn3)ccc2nc1N [Example 155, 2-amino-N',3-dimethyl-N-((1'-methyl-6'-oxo-1',6'-dihydro-[3,3'-bipyridine]-6-yl)methyl)-N'-(pyrimidin-2-yl)quinoline-6-car bohydrazide] | 2.3 | 1260 | 42 | 30.00
21 | COC1CN(C(=O)c2cc3c(cc2C)nc(N)c2cnn(C)c23)N(c2ncccc2F)C1 (stereo not shown) [Example 417, (4-amino-1,7-dimethyl-1H-pyrazolo[4,3-c]quinolin-8-yl)(2-(3-fluoropyridin-2-yl)-4-methoxypyrazolidin-1-yl)methanone] | 3.8 | 790 | 20 | 39.50
22 | CCC1(F)CN(C(=O)c2cc3c(cc2C)nc(N)c2cnn(C)c23)N(c2ncccc2F)C1 (stereo not shown) [Example 423, (4-amino-1,7-dimethyl-1H-pyrazolo[4,3-c]quinolin-8-yl)(4-ethyl-4-fluoro-2-(3-fluoropyridin-2-yl)pyrazolidin-1-yl)methanone] | 6.7 | 682 | 25 | 27.28
23 | Cc1cc2nc(N)c3cnn(C)c3c2cc1C(=O)N1CC(C)CN1c1ncc(C#CCF)cc1F (stereo not shown) [Example 495, (4-amino-1,7-dimethyl-1H-pyrazolo[4,3-c]quinolin-8-yl)(2-(3-fluoro-5-(3-fluoroprop-1-yn-1-yl)pyridin-2-yl)-4-methylpyrazolidin-1-yl)methanone] | 15 | 1660 | 69 | 24.00
